# PubChem BioAssay (NCI)
#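 Where inhibition never reached the appropriate level, the endpoint shown equals the highest concentration tested. Otherwise, values were interpolated linearly from a five-concentration, 48-hour dose response in 96-well plates. TGI is the concentration that stops growth completely.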
# What was measured:
# Experiment in all cases: NCI tumour cell line growth inhibition, 48 h
# RXF 393 renal = tested on: RXF 393 renal
# SNB-19 CNS = tested on: SNB-19 CNS
# HOP-18 NSCLC = tested on: HOP-18 NSCLC
# OVCAR-8 ovarian = tested on: OVCAR-8 ovarian
# RPMI-8226 leukemia = tested on: RPMI-8226 leukemia
# LOX IMVI melanoma = tested on: LOX IMVI melanoma
# K-562 leukemia = tested on: K-562 leukemia
# MOLT-4 leukemia = tested on: MOLT-4 leukemia
# SW-620 colon = tested on: SW-620 colon
# DLD-1 colon = tested on: DLD-1 colon
# UACC-257 melanoma = tested on: UACC-257 melanoma
# SR leukemia = tested on: SR leukemia
# MALME-3M melanoma = tested on: MALME-3M melanoma
# SK-MEL-28 melanoma = tested on: SK-MEL-28 melanoma
# HL-60(TB) leukemia = tested on: HL-60(TB) leukemia
# SF-295 CNS = tested on: SF-295 CNS
# DMS 114 small cell lung = tested on: DMS 114 small cell lung
# HOP-62 NSCLC = tested on: HOP-62 NSCLC
# A549 NSCLC = tested on: A549 NSCLC
# HCT-116 colon = tested on: HCT-116 colon
# M14 melanoma = tested on: M14 melanoma
# NCI-H23 lung = tested on: NCI-H23 lung
# TK-10 renal = tested on: TK-10 renal
# 786-0 renal = tested on: 786-0 renal
# COLO 205 colon = tested on: COLO 205 colon
# SNB-75 CNS = tested on: SNB-75 CNS
# HCC-2998 colon = tested on: HCC-2998 colon
# NCI-H522 lung = tested on: NCI-H522 lung
# OVCAR-5 ovarian = tested on: OVCAR-5 ovarian
# A498 renal = tested on: A498 renal
# SN12C renal = tested on: SN12C renal
# SF-539 CNS = tested on: SF-539 CNS
# EKVX NSCLC = tested on: EKVX NSCLC
# SF-268 CNS = tested on: SF-268 CNS
# SNB-78 CNS = tested on: SNB-78 CNS
# SK-MEL-5 melanoma = tested on: SK-MEL-5 melanoma
# SK-OV-3 ovarian = tested on: SK-OV-3 ovarian
# UO-31 renal = tested on: UO-31 renal
# NCI-H226 lung = tested on: NCI-H226 lung
# UACC-62 melanoma = tested on: UACC-62 melanoma
# CCRF-CEM leukemia = tested on: CCRF-CEM leukemia
# ACHN renal = tested on: ACHN renal
# KM12 colon = tested on: KM12 colon
# M19-MEL melanoma = tested on: M19-MEL melanoma
# HOP-92 NSCLC = tested on: HOP-92 NSCLC
# XF 498 CNS = tested on: XF 498 CNS
# LXFL 529 NSCLC = tested on: LXFL 529 NSCLC
# HT29 colon = tested on: HT29 colon
# U251 CNS = tested on: U251 CNS
# KM20L2 colon = tested on: KM20L2 colon
# OVCAR-3 ovarian = tested on: OVCAR-3 ovarian
# DMS 273 small cell lung = tested on: DMS 273 small cell lung
# SK-MEL-2 melanoma = tested on: SK-MEL-2 melanoma
# NCI-H460 lung = tested on: NCI-H460 lung
# RXF-631 renal = tested on: RXF-631 renal
# HCT-15 colon = tested on: HCT-15 colon
# IGROV1 ovarian = tested on: IGROV1 ovarian
# OVCAR-4 ovarian = tested on: OVCAR-4 ovarian
# CAKI-1 renal = tested on: CAKI-1 renal
structure (smiles),measurement,setting,value
CCOC(=O)Cc1ccc2c(c1O)C(=O)c1c(ccc(CC(=O)OCC)c1O)C2=O,TGI,RXF 393 renal,> 100 µM
same,TGI,SNB-19 CNS,> 100 µM
same,TGI,HOP-18 NSCLC,> 100 µM
same,TGI,OVCAR-8 ovarian,> 100 µM
same,TGI,RPMI-8226 leukemia,> 100 µM
same,TGI,LOX IMVI melanoma,> 100 µM
same,TGI,K-562 leukemia,> 100 µM
same,TGI,MOLT-4 leukemia,> 100 µM
same,TGI,SW-620 colon,> 100 µM
same,TGI,DLD-1 colon,> 100 µM
same,TGI,UACC-257 melanoma,> 100 µM
same,TGI,SR leukemia,> 100 µM
same,TGI,MALME-3M melanoma,> 100 µM
same,TGI,SK-MEL-28 melanoma,> 100 µM
same,TGI,HL-60(TB) leukemia,> 100 µM
same,TGI,SF-295 CNS,> 100 µM
same,TGI,DMS 114 small cell lung,> 100 µM
same,TGI,HOP-62 NSCLC,> 100 µM
same,TGI,A549 NSCLC,> 100 µM
same,TGI,HCT-116 colon,> 100 µM
same,TGI,M14 melanoma,> 100 µM
same,TGI,NCI-H23 lung,> 100 µM
same,TGI,TK-10 renal,> 100 µM
same,TGI,786-0 renal,> 100 µM
same,TGI,COLO 205 colon,> 100 µM
same,TGI,SNB-75 CNS,> 100 µM
same,TGI,HCC-2998 colon,> 100 µM
same,TGI,NCI-H522 lung,> 100 µM
same,TGI,OVCAR-5 ovarian,> 100 µM
same,TGI,A498 renal,> 100 µM
same,TGI,SN12C renal,> 100 µM
same,TGI,SF-539 CNS,> 100 µM
same,TGI,EKVX NSCLC,> 100 µM
same,TGI,SF-268 CNS,> 100 µM
same,TGI,SNB-78 CNS,> 100 µM
same,TGI,SK-MEL-5 melanoma,> 100 µM
same,TGI,SK-OV-3 ovarian,> 100 µM
same,TGI,UO-31 renal,> 100 µM
same,TGI,NCI-H226 lung,> 100 µM
same,TGI,UACC-62 melanoma,> 100 µM
same,TGI,CCRF-CEM leukemia,> 100 µM
same,TGI,ACHN renal,> 100 µM
same,TGI,KM12 colon,> 100 µM
same,TGI,M19-MEL melanoma,> 100 µM
same,TGI,HOP-92 NSCLC,> 100 µM
same,TGI,XF 498 CNS,> 100 µM
same,TGI,LXFL 529 NSCLC,> 100 µM
same,TGI,HT29 colon,> 100 µM
same,TGI,U251 CNS,> 100 µM
same,TGI,KM20L2 colon,> 100 µM
same,TGI,OVCAR-3 ovarian,> 100 µM
same,TGI,DMS 273 small cell lung,> 100 µM
same,TGI,SK-MEL-2 melanoma,> 100 µM
C#CCOCn1cnc2c(Sc3c([N+](=O)[O-])ncn3C)ncnc21,TGI,NCI-H460 lung,> 100 µM
same,TGI,RXF 393 renal,> 100 µM
same,TGI,SNB-19 CNS,> 100 µM
same,TGI,RXF-631 renal,> 100 µM
same,TGI,OVCAR-8 ovarian,> 100 µM
same,TGI,RPMI-8226 leukemia,> 100 µM
same,TGI,LOX IMVI melanoma,> 100 µM
same,TGI,K-562 leukemia,> 100 µM
same,TGI,SW-620 colon,> 100 µM
same,TGI,DLD-1 colon,> 100 µM
same,TGI,UACC-257 melanoma,> 100 µM
same,TGI,MALME-3M melanoma,> 100 µM
same,TGI,SK-MEL-28 melanoma,> 100 µM
same,TGI,HL-60(TB) leukemia,> 100 µM
same,TGI,SF-295 CNS,> 100 µM
same,TGI,DMS 114 small cell lung,> 100 µM
same,TGI,HCT-15 colon,> 100 µM
same,TGI,HOP-62 NSCLC,> 100 µM
same,TGI,A549 NSCLC,> 100 µM
same,TGI,M14 melanoma,> 100 µM
same,TGI,NCI-H23 lung,> 100 µM
same,TGI,TK-10 renal,> 100 µM
same,TGI,786-0 renal,> 100 µM
same,TGI,COLO 205 colon,> 100 µM
same,TGI,SNB-75 CNS,72.7 µM
same,TGI,HCC-2998 colon,> 100 µM
same,TGI,NCI-H522 lung,> 100 µM
same,TGI,OVCAR-5 ovarian,> 100 µM
same,TGI,A498 renal,> 100 µM
same,TGI,SN12C renal,> 100 µM
same,TGI,EKVX NSCLC,> 100 µM
same,TGI,SF-268 CNS,> 100 µM
same,TGI,SK-MEL-5 melanoma,> 100 µM
same,TGI,IGROV1 ovarian,> 100 µM
same,TGI,SK-OV-3 ovarian,> 100 µM
same,TGI,UO-31 renal,> 100 µM
same,TGI,NCI-H226 lung,> 100 µM
same,TGI,UACC-62 melanoma,> 100 µM
same,TGI,CCRF-CEM leukemia,> 100 µM
same,TGI,OVCAR-4 ovarian,> 100 µM
same,TGI,ACHN renal,> 100 µM
same,TGI,KM12 colon,> 100 µM
same,TGI,M19-MEL melanoma,> 100 µM
same,TGI,HOP-92 NSCLC,> 100 µM
same,TGI,CAKI-1 renal,> 100 µM
same,TGI,XF 498 CNS,> 100 µM
same,TGI,LXFL 529 NSCLC,> 100 µM
same,TGI,HT29 colon,> 100 µM
same,TGI,U251 CNS,> 100 µM
same,TGI,KM20L2 colon,> 100 µM
same,TGI,OVCAR-3 ovarian,> 100 µM
same,TGI,DMS 273 small cell lung,> 100 µM
same,TGI,SK-MEL-2 melanoma,> 100 µM
